# Tests used:
# mAChR M1 = mAChR M1 (Homo sapiens, UniProt P11229); assay: In vitro cellular calcium flux assay, positive allosteric modulation of mAChR M1; type: cell-based; details: BHK cells expressing mAChR M1; EC20 carbachol; Examples 76-80 and 82-89 slightly modified procedure
# In short: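 Baby hamster kidney cells stably expressing human mAChR M1, loaded with Calcium 4 dye in HBSS/20 mM HEPES/2.5 mM probenecid for 30 min at 37 °C. An 11-point 1-in-3 compound dilution series was added and calcium rise read as fluorescence; positive allosteric modulator pEC50 and antagonist pIC50 derived.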
# mAChR M2 = mAChR M2 (Homo sapiens (Human), UniProt P08172); assay: In vitro cellular calcium flux assay, PAM, NAM and agonist modes, mAChR M2; type: cell-based
# Sequence of mAChR M2 (P08172 whole entry): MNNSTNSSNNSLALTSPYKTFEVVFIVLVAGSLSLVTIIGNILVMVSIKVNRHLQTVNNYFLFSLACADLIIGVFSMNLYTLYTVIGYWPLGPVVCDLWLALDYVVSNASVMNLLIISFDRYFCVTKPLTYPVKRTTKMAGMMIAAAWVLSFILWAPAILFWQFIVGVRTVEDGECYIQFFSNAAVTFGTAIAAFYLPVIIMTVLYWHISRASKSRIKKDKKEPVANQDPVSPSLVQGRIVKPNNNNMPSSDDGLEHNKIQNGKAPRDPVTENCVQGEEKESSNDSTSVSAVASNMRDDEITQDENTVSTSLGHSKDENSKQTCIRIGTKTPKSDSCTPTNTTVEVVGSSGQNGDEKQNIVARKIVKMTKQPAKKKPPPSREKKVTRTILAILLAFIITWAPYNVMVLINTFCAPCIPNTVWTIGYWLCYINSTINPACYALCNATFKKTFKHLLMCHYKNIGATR
# Procedure: (§1) Baby hamster kidney cells stably expressing human or rat mAChR M1 to M5 were utilised for primary and selectivity profiling activities. mAChR M2 and M4 cell lines also stably expressed the chimeric Gαqi5 G-protein.
# (§2) Human mAChR M1, M3, M5 and rat M1 cells were grown in low glucose Dulbecco's Modified Eagle's Medium (DMEM) medium plus heat inactivated 10% fetal bovine serum (HI FBS) and 500 μg/ml hygromycin B^1. Human mAChR M2 and M4 cells were maintained as above with^2 the addition of 500 μg/ml G418 to the media. Cells were maintained in culture at 37° C./5% CO2 and passaged twice weekly by treatment with 0.05% Trypsin/EDTA detachment solution, centrifugation (200 g, 5 min) and re-suspension in fresh media. Following cell expansion, cells were cryopreserved at −80° C. by treatment with 0.05% Trypsin/EDTA detachment solution, centrifugation (200 g, 5 min) and re-suspension of the pellet in freezing media (90% HI FBS/10% DMSO^3) at 15E6 cells/ml^4.
# (§3) Prior to assaying, cells were prepared by thawing at 37° C. in a water bath, centrifugation (200 g, 5 min) and re-suspension of the pellet in fresh media. 15000 cells per well were seeded in black, clear bottomed 384-well Greiner Bio-One plates in plating medium (DMEM/10% HI FBS) and incubated overnight at 37 C/5% CO2.
# (§4) On the day of the assay, media was removed from each well and replaced with 50 μl^5 assay buffer (HBSS with 20 mM HEPES and 2.5 mM Probenecid) containing the calcium indicator, Calcium 4 (Molecular Devices). Cells were then incubated at 37° C./5% CO2 for 30 min and at room temperature.
# (§5) Compound preparation was carried out by generation of 11-point, 1 in 3 serial dilution concentration response curves in 100% DMSO. Compound was then diluted 1 in 65^6 with assay buffer (HBSS with 20 mM HEPES and 2.5 mM Probenecid) prior to the addition of 10 ul^7 to the cells using a Tetra fluorometric imaging plate reader (Molecular Devices)^8. Compound driven increases in intracellular calcium flux was measured as an increase in fluorescence (494Ex, 516Em)^9.
# (§6) Positive allosteric modulator pEC50 values and antagonist pIC50 values for each compound were then determined. […] The points of modification and the alternate reagents, concentrations or equipment employed in these examples were: ^1200 μg/ml hygromycin B; ^2G418 not added; ^3CELLBANKER 1; ^410E6; ^5 40 μl; ^6 1 in 99; ^7 20 μl; ^8FDSS6000 (Hamamatsu Photonics); ^9(480Ex, 540Em); ^10Spotfire (TIBCO).
# (§7) Certain compounds were tested in PAM, NAM and agonist modes against mAChR M2, M3, M4 and M5.
# mAChR M3 = mAChR M3 (Homo sapiens (Human), UniProt P20309); assay: In vitro cellular calcium flux assay, PAM, NAM and agonist modes, mAChR M3; type: cell-based
# Sequence of mAChR M3 (P20309 whole entry, looked up): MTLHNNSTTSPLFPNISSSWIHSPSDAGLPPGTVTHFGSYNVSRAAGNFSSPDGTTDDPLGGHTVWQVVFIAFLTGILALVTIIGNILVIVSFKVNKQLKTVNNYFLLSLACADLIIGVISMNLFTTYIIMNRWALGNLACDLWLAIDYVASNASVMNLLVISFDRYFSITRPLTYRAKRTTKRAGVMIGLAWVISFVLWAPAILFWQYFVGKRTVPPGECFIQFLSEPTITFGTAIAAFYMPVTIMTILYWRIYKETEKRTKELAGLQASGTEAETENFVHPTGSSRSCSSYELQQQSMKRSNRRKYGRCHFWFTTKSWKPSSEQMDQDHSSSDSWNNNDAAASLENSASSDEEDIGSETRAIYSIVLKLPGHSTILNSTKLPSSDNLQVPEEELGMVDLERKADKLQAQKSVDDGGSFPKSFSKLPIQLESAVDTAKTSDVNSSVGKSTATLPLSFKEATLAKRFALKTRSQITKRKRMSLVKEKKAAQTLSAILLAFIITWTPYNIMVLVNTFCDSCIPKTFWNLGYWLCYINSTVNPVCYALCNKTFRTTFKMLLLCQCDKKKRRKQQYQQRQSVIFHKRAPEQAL
# Procedure: as §1, §2, §3, §4, §5, §6, §7
# mAChR M4 = mAChR M4 (Homo sapiens (Human), UniProt P08173); assay: In vitro cellular calcium flux assay, PAM, NAM and agonist modes, mAChR M4; type: cell-based
# Sequence of mAChR M4 (P08173 whole entry): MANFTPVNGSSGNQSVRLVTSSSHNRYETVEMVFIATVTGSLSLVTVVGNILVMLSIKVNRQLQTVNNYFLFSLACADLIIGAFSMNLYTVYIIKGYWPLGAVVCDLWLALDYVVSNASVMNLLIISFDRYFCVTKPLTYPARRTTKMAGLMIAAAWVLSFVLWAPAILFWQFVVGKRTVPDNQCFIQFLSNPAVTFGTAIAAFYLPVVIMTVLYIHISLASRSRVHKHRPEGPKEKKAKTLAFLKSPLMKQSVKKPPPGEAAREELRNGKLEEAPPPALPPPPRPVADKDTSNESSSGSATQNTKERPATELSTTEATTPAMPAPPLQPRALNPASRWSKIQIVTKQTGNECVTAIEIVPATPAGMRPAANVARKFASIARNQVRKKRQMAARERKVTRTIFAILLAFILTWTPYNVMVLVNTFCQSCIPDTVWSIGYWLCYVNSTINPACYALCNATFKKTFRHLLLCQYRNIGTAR
# Procedure: as §1, §2, §3, §4, §5, §6, §7
# mAChR M5 = mAChR M5 (Homo sapiens (Human), UniProt P08912); assay: In vitro cellular calcium flux assay, PAM, NAM and agonist modes, mAChR M5; type: cell-based
# Sequence of mAChR M5 (P08912 whole entry): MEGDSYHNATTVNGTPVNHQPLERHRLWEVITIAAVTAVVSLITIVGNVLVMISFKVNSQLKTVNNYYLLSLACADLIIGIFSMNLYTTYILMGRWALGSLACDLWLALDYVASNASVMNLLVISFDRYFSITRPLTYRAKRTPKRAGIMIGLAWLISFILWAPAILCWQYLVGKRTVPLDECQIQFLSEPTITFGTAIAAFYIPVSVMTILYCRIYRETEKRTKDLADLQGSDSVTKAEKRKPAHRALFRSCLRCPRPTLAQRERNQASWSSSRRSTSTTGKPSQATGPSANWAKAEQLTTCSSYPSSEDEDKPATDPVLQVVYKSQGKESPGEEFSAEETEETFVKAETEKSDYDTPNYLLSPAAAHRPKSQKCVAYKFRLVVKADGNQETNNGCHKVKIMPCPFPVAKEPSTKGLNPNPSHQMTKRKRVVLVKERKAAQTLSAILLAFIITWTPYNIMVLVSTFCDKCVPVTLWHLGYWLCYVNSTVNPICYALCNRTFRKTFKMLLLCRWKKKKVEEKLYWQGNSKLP
# Procedure: as §1, §2, §3, §4, §5, §6, §7
# Male Lister Hooded rats = assay: Novel Object Recognition test; type: in vivo; details: rat, 24 h delay
# Procedure: The Novel Object Recognition test (NOR) is based on the greater spontaneous exploration of a novel object, compared with a familiar object, observed in rodents (Behav. Brain Res., 1988, 31(1), 47-59). […] Therefore, it is considered to be analogous to recognition memory tests used in human clinical testing. Male Lister Hooded rats were assessed for object recognition in a test apparatus comprising of a perspex test arena housed within a sound attenuating chamber. Video images of behaviour were captured by digital camera and recorded to a computer. Rats were habituated to the test arena on four occasions prior to testing. Habituation sessions replicated the test day sequence exactly with the exception of object presentation. On test days, each rat was placed into the test arena and 3 minutes later the rat was presented with two identical objects (plastic shapes). The time spent actively exploring the objects during a 3-minute test period (T1) was recorded. Following T1 rats were returned to home cages. After 24 hours each rat was again placed in the test arena and 3 minutes later was presented with one of the now familiar objects and a novel object, and again the time spent actively exploring the objects during a 3-minute test period (T2) was recorded. The presentation order and position of objects (left/right) was randomised within groups to prevent bias from order or place preference. Objects were cleaned with 70% ethanol solution between trials to remove any olfactory/taste cues. Compounds were administered by oral gavage at an appropriate pre-treatment time prior to T1 and T2 (n=12) at dosage ranges between 0.03 and 3 mg/kg. In some experiments the 5-HT6 receptor antagonist N-(3,5-dichloro-2-methoxyphenyl)-4-methoxy-3-(piperazin-1-yl)benzenesulfonamide (CAS 402713-80-8) (10 mg/kg p.o.; 4 h pre-treatment time) was included as a positive control. Vehicle controls (1% methylcellulose in water) were included for comparison in each study. Results are expressed as the d2 index (difference in time spent exploring novel and familiar objects/total object exploration in T2).
# Sequence of mAChR M1 (P11229 whole entry, looked up): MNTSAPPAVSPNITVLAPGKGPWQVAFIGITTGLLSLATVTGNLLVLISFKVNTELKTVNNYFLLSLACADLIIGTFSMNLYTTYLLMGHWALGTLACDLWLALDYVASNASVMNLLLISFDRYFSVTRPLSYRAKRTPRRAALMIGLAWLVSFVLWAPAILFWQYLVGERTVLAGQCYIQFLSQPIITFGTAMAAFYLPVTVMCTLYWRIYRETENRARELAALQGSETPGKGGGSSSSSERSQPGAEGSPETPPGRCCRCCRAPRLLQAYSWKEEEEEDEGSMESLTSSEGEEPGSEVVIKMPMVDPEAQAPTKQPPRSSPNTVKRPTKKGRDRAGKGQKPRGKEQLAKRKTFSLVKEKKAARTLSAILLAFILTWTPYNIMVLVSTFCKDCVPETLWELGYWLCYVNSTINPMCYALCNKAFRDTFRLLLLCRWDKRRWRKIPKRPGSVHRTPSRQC
smiles,measurement,setting,value
"Cc1ccnc2c(C(=O)N[C@H]3CCCC[C@@H]3O)cn(Cc3cccc(F)c3F)c12 [Example 11, 1-(2,3-Difluorobenzyl)-N-((1S,2S)-2-hydroxycyclohexyl)-7-methyl-1H-pyrrolo[3,2-b]pyridine-3-carboxamide]",pEC50 for positive allosteric modulation,mAChR M1,6.9
same,EC50,mAChR M2,> 10 µM
same,EC50,mAChR M3,> 10 µM
same,EC50,mAChR M4,> 10 µM
same,EC50,mAChR M5,> 10 µM
same,d2 index [mean ± SEM],Male Lister Hooded rats; 0.3 mg/kg p.o.,[0.24 ± 0.06]
same,d2 index [mean ± SEM],Male Lister Hooded rats; 1 mg/kg p.o.,[0.24 ± 0.07]
same,d2 index [mean ± SEM],Male Lister Hooded rats; 3 mg/kg p.o.,[0.31 ± 0.06]**
"O=C(N[C@H]1CCCC[C@@H]1O)c1cn(Cc2cccc(F)c2F)c2cccnc12 [Example 8, 1-(2,3-Difluorobenzyl)-N-((1S,2S)-2-hydroxycyclohexyl)-1H-pyrrolo[3,2-b]pyridine-3-carboxamide]",pEC50 for positive allosteric modulation,mAChR M1,6.5
same,EC50,mAChR M2,> 10 µM
same,EC50,mAChR M3,> 10 µM
same,EC50,mAChR M4,> 10 µM
same,EC50,mAChR M5,> 10 µM
same,d2 index [mean ± SEM],Male Lister Hooded rats; 0.03 mg/kg p.o.,[0.00 ± 0.07]
same,d2 index [mean ± SEM],Male Lister Hooded rats; 0.1 mg/kg p.o.,[0.09 ± 0.06]
same,d2 index [mean ± SEM],Male Lister Hooded rats; 0.3 mg/kg p.o.,[0.34 ± 0.06]***
"COc1ccc(Cn2cc(C(=O)N[C@H]3CCCC[C@@H]3O)c3nccc(C)c32)cc1 [Example 12, N-((1S,2S)-2-Hydroxycyclohexyl)-1-(4-methoxybenzyl)-7-methyl-1H-pyrrolo[3,2-b]pyridine-3-carboxamide]",pEC50 for positive allosteric modulation,mAChR M1,7.7
same,EC50,mAChR M2,> 10 µM
same,EC50,mAChR M3,> 10 µM
same,EC50,mAChR M4,> 10 µM
same,EC50,mAChR M5,> 10 µM
same,d2 index [mean ± SEM],Male Lister Hooded rats; 0.3 mg/kg p.o.,[0.13 ± 0.06]
same,d2 index [mean ± SEM],Male Lister Hooded rats; 1 mg/kg p.o.,[0.30 ± 0.05]***
same,d2 index [mean ± SEM],Male Lister Hooded rats; 3 mg/kg p.o.,[0.33 ± 0.06]***
"COc1ccc(Cn2cc(C(=O)N[C@H]3CCCC[C@@H]3O)c3nccc(C)c32)cc1F [Example 13, 1-(3-Fluoro-4-methoxybenzyl)-N-((1S,2S)-2-hydroxycyclohexyl)-7-methyl-1H-pyrrolo[3,2-b]pyridine-3-carboxamide]",pEC50 for positive allosteric modulation,mAChR M1,7.9
same,EC50,mAChR M2,> 10 µM
same,EC50,mAChR M3,> 10 µM
same,EC50,mAChR M4,> 10 µM
same,EC50,mAChR M5,> 10 µM
same,d2 index [mean ± SEM],Male Lister Hooded rats; 0.3 mg/kg p.o.,[0.09 ± 0.05]
same,d2 index [mean ± SEM],Male Lister Hooded rats; 1 mg/kg p.o.,[0.13 ± 0.07]
same,d2 index [mean ± SEM],Male Lister Hooded rats; 3 mg/kg p.o.,[0.25 ± 0.09]*
"COc1cc(Cn2cc(C(=O)N[C@H]3CCCC[C@@H]3O)c3ncccc32)ccc1F [Example 91, 1-(4-fluoro-3-methoxybenzyl)-N-((1S,2S)-2-hydroxycyclohexyl)-1H-pyrrolo[3,2-b]pyridine-3-carboxamide]",pEC50 for positive allosteric modulation,mAChR M1,6.3
"Cc1cc(Cn2cc(C(=O)N[C@H]3CCCC[C@@H]3O)c3ncccc32)ccc1F [Example 6, 1-(4-Fluoro-3-methylbenzyl)-N-((1S,2S)-2-hydroxycyclohexyl)-1H-pyrrolo[3,2-b]pyridine-3-carboxamide]",pEC50 for positive allosteric modulation,mAChR M1,6.7
same,EC50,mAChR M2,> 10 µM
same,EC50,mAChR M3,> 10 µM
same,EC50,mAChR M4,> 10 µM
same,EC50,mAChR M5,> 10 µM
same,d2 index [mean ± SEM],Male Lister Hooded rats; 0.3 mg/kg p.o.,[0.11 ± 0.09]
same,d2 index [mean ± SEM],Male Lister Hooded rats; 1 mg/kg p.o.,[0.27 ± 0.08]*
same,d2 index [mean ± SEM],Male Lister Hooded rats; 3 mg/kg p.o.,[0.36 ± 0.09]**
"COc1cc(Cn2cc(C(=O)N[C@H]3CCCC[C@@H]3O)c3nccc(C)c32)ccn1 [Example 71, N-((1S,2S)-2-Hydroxycyclohexyl)-1-((2-methoxypyridin-4-yl)methyl)-7-methyl-1H-pyrrolo[3,2-b]pyridine-3-carboxamide]",pEC50 for positive allosteric modulation,mAChR M1,7.9
"Cc1nc(Cn2cc(C(=O)N[C@H]3CCCC[C@@H]3O)c3ncccc32)cs1 [Example 7, N-((1S,2S)-2-Hydroxycyclohexyl)-1-((2-methylthiazol-4-yl)methyl)-1H-pyrrolo[3,2-b]pyridine-3-carboxamide]",pEC50 for positive allosteric modulation,mAChR M1,5.9
"O=C(NC1CCOCC1)c1cn(Cc2ccc(F)cc2)c2cccnc12 [Example 29, 1-(4-Fluorobenzyl)-N-(tetrahydro-2H-pyran-4-yl)-1H-pyrrolo[3,2-b]pyridine-3-carboxamide]",pEC50 for positive allosteric modulation,mAChR M1,5.8
"O=C(NC1CCC(F)(F)C[C@@H]1O)c1cn(Cc2ccc(F)cc2)c2cccnc12 (single isomer, unassigned) [Example 34, N-(trans-4,4-Difluoro-2-hydroxycyclohexyl)-1-(4-fluorobenzyl)-1H-pyrrolo[3,2-b]pyridine-3-carboxamide]",pEC50 for positive allosteric modulation,mAChR M1,6.9
same,EC50,mAChR M2,> 10 µM
same,EC50,mAChR M3,> 10 µM
same,EC50,mAChR M4,> 10 µM
same,EC50,mAChR M5,> 10 µM
same,d2 index [mean ± SEM],Male Lister Hooded rats; 0.1 mg/kg p.o.,[0.08 ± 0.08]
same,d2 index [mean ± SEM],Male Lister Hooded rats; 0.3 mg/kg p.o.,[0.24 ± 0.05]*
same,d2 index [mean ± SEM],Male Lister Hooded rats; 1 mg/kg p.o.,[0.23 ± 0.06]*
"Cc1cccc(-c2ccc(Cn3cc(C(=O)N[C@H]4CCCC[C@@H]4O)c4ncccc43)c(F)c2)n1 [Example 44, 1-(2-Fluoro-4-(6-methylpyridin-2-yl)benzyl)-N-((1S,2S)-2-hydroxycyclohexyl)-1H-pyrrolo[3,2-b]pyridine-3-carboxamide]",pEC50 for positive allosteric modulation,mAChR M1,6.9
"O=C(N[C@H]1CCOC[C@@H]1O)c1cn(Cc2ccc(F)cc2)c2c(Cl)ccnc12 [Example 88, 7-Chloro-1-(4-fluorobenzyl)-N-((3R,4S)-3-hydroxytetrahydro-2H-pyran-4-yl)-1H-pyrrolo[3,2-b]pyridine-3-carboxamide]",pEC50 for positive allosteric modulation,mAChR M1,6.4
"Cc1ccc(Cn2cc(C(=O)N[C@H]3CCCC[C@@H]3O)c3ncccc32)cn1 [Example 25, N-((1S,2S)-2-Hydroxycyclohexyl)-1-((6-methylpyridin-3-yl)methyl)-1H-pyrrolo[3,2-b]pyridine-3-carboxamide]",pEC50 for positive allosteric modulation,mAChR M1,6.2
"COc1ccc(Cn2cc(C(=O)N[C@H]3CCCC[C@@H]3O)c3nccc(C)c32)cc1C [Example 66, N-((1S,2S)-2-Hydroxycyclohexyl)-1-(4-methoxy-3-methylbenzyl)-7-methyl-1H-pyrrolo[3,2-b]pyridine-3-carboxamide]",pEC50 for positive allosteric modulation,mAChR M1,7.9
"COc1ccc(Cn2cc(C(=O)N[C@H]3CCCC[C@@H]3O)c3nccc(Cl)c32)cc1 [Example 58, 7-Chloro-N-((1S,2S)-2-hydroxycyclohexyl)-1-(4-methoxybenzyl)-1H-pyrrolo[3,2-b]pyridine-3-carboxamide]",pEC50 for positive allosteric modulation,mAChR M1,7.7
